Assay results published in the supplement of paper PMC10307832.

Tests used:
Assay in all cases: relative viability (nuclei count vs DMSO), 5 days (fraction); higher = more cells survive
BAM7 = compound: CCOC1=CC=CC=C1N=NC2=C(NN(C2=O)C3=NC(=CS3)C4=CC=CC=C4)C [BAM7]
How it was run: (§1)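 Cells of lung cancer lines were placed in 1536-well plates and kept overnight at 37 °C. Pinning then delivered five library-drug doses (not always all listed), spaced by √10, onto plates anchored with vehicle, and the cells were left 5 days without changing medium. One step fixed, permeabilised and stained them with Hoechst, and MetaXpress counted nuclei in 4× images. Viability, as a median over plates, is treated-well nuclei divided by vehicle-well nuclei, with acceptance only at control CV below 25% and at least one doubling.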

[1] = compound: CCn1c(-c2nonc2N)nc2c(C#CC(C)(C)O)ncc(OC[C@H]3CCCNC3)c21
How it was run: as §1

BAM7 + Trametinib = compound: CCOC1=CC=CC=C1N=NC2=C(NN(C2=O)C3=NC(=CS3)C4=CC=CC=C4)C [BAM7] + CC(=O)Nc1cccc(-n2c(=O)n(C3CC3)c(=O)c3c(Nc4ccc(I)cc4F)n(C)c(=O)c(C)c32)c1 [Trametinib] (partner 0.02 µM)
How it was run: (§2)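 Values are medians from duplicate plates. Each reflects relative viability, defined as the nuclei count of treated wells over that of vehicle wells. Lung cancer cell lines in 1536-well plates were pin-tool dosed one day after seeding with one drug alone or with a fixed anchor-drug dose plus five library-drug doses (not always all listed) in √10 steps, then fixed, stained and imaged at 4× after 5 days.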

[2] = compound: CCn1c(-c2nonc2N)nc2c(C#CC(C)(C)O)ncc(OC[C@H]3CCCNC3)c21 + CC1(C)CCC(c2ccc(Cl)cc2)=C(CN2CCN(c3ccc(C(=O)NS(=O)(=O)c4ccc(N[C@H](CCN5CCOCC5)CSc5ccccc5)c(S(=O)(=O)C(F)(F)F)c4)cc3)CC2)C1 [Navitoclax] (partner 0.5 µM)
How it was run: as §2

| Cell Line | relative viability (BAM7; 0.5 µM) | relative viability (BAM7; 5 µM) | relative viability (BAM7; 15.81 µM) | relative viability (BAM7; 50 µM) | relative viability ([1]; 0.01 µM) | relative viability ([1]; 0.03162 µM) | relative viability ([1]; 0.1 µM) | relative viability ([1]; 0.3162 µM) | relative viability ([1]; 1 µM) | relative viability (BAM7 + Trametinib; first compound 0.5 µM) | relative viability (BAM7 + Trametinib; first compound 5 µM) | relative viability (BAM7 + Trametinib; first compound 15.81 µM) | relative viability (BAM7 + Trametinib; first compound 50 µM) | relative viability ([2]; first compound 0.01 µM) | relative viability ([2]; first compound 0.03162 µM) | relative viability ([2]; first compound 0.1 µM) | relative viability ([2]; first compound 0.3162 µM) | relative viability ([2]; first compound 1 µM) |
| --- | --- | --- | --- | --- | --- | --- | --- | --- | --- | --- | --- | --- | --- | --- | --- | --- | --- | --- |
| NCI-H1793 | 0.963 | 0.838 | 0.899 | 1.03 | 0.936 | 0.879 | 0.751 | 0.859 | 0.942 | 0.407 | 0.473 | 0.385 | 0.483 | 0.381 | 0.462 | 0.465 | 0.375 | 0.41 |
| LC-2-ad | 0.961 | 1 | 0.939 | 1.01 | 0.903 | 0.951 | 0.964 | 0.949 | 0.989 | 0.884 | 0.91 | 0.87 | 0.847 | 0.56 | 0.417 | 0.579 | 0.419 | 0.487 |
| COR-L 105 | 0.833 | 0.909 | 0.95 | 1.14 | 0.919 | 0.961 | 1.01 | 0.843 | 1.04 | 0.404 | 0.525 | 0.466 | 0.272 | 0.613 | 0.715 | 0.74 | 0.67 | 0.654 |
| NCI-H1355 | 0.971 | 0.888 | 0.862 | 0.91 | 0.932 | 0.904 | 0.958 | 0.945 | 0.992 | 0.399 | 0.386 | 0.317 | 0.457 | 1 | 0.819 | 1.02 | 0.882 | 0.969 |
| H3255 | 0.99 | 1.02 | 0.963 | 0.995 | 0.924 | 0.949 | 0.998 | 0.856 | 0.904 | 0.539 | 0.607 | 0.507 | 0.555 | 0.526 | 0.571 | 0.429 | 0.407 | 0.466 |
| NCI-H1993 | 0.776 | 0.764 | 0.744 | 0.737 | 0.968 | 0.976 | 0.985 | 0.92 | 0.852 | 0.456 | 0.524 | 0.479 | 0.506 | 0.943 | 1.01 | 1.04 | 0.767 | 0.961 |
| NCI-H1734 | 1.03 | 1.07 | 1 | 1.1 | 0.95 | 0.978 | 0.893 | 0.932 | 0.86 | 0.766 | 0.798 | 0.667 | 0.626 | 0.781 | 0.921 | 0.814 | 0.821 | 0.816 |
| HOP-62 | 1.03 | 1.09 | 1.07 | 1.07 | 0.989 | 0.945 | 1.01 | 0.976 | 1.01 | 0.37 | 0.416 | 0.376 | 0.352 | 0.997 | 0.942 | 1.04 | 0.951 | 1.05 |
| LOU-NH91 | 0.974 | 1.06 | 0.939 | 0.973 | 1 | 0.924 | 0.989 | 0.9 | 0.888 | 0.794 | 0.788 | 0.804 | 0.805 | 0.691 | 0.709 | 0.697 | 0.632 | 0.572 |
| ChaGo-K-1 | 0.966 | 1.02 | 1.01 | 0.92 | 0.965 | 0.988 | 0.972 | 0.936 | 1 | 0.894 | 0.895 | 0.853 | 0.842 | 1.1 | 0.88 | 0.951 | 0.899 | 1.14 |
| NCI-H2228 | 1.06 | 0.968 | 0.914 | 1.2 | 0.938 | 1.1 | 1.04 | 0.848 | 0.809 | 0.601 | 0.523 | 0.41 | 0.547 | 0.728 | 0.673 | 0.791 | 0.634 | 0.787 |
| PC-14 | 1.04 | 1.06 | 1 | 1.01 | 0.937 | 1 | 1.11 | 0.954 | 1.03 | 0.829 | 0.745 | 0.542 | 0.697 | 1.04 | 1.02 | 0.976 | 0.875 | 1.08 |
| NCI-H1437 | 0.991 | 1.02 | 0.928 | 1.01 | 0.957 | 0.974 | 1.05 | 0.935 | 1.1 | 0.415 | 0.396 | 0.394 | 0.414 | 1.05 | 1.08 | 1.11 | 1.09 | 1.13 |
| NCI-H460 | 1.02 | 0.989 | 0.895 | 0.969 | 0.977 | 0.983 | 0.983 | 0.998 | 0.949 | 0.0937 | 0.124 | 0.145 | 0.13 | 1.1 | 1.17 | 1.13 | 1.05 | 1.19 |
| NCI-H1666 | 1.03 | 1 | 1.09 | 1.05 | 1.02 | 0.956 | 1.01 | 0.949 | 0.954 | 0.895 | 0.879 | 0.887 | 0.837 | 0.881 | 0.835 | 0.699 | 0.904 | 0.871 |
| NCI-H1651 | 1.02 | 1 | 1 | 1.05 | 0.941 | 0.935 | 0.95 | 0.924 | 1.01 | 0.859 | 0.842 | 0.835 | 0.862 | 1.06 | 1.02 | 1.01 | 1.14 | 1 |
| NCI-H1755 | 1.02 | 1.03 | 0.978 | 1.02 | 0.989 | 1.03 | 0.973 | 0.903 | 1.01 | 0.749 | 0.805 | 0.705 | 0.779 | 0.985 | 0.984 | 0.981 | 0.958 | 1.01 |
